According to EP2599789A1, “Marker and method for diagnosing diarrhea syndrome” (Bergen Teknologioverføring AS, priority 2011, dated 2013):
Where “and” joins values, the source holds several entries; their conditions need not be identical. Equal entries are not always repeated. Entries after “also recorded” stand apart in the source; their conditions may differ.

Assays:
[1] = tested on: familial diarrhea syndrome patients; assay: Metformin treatment trial (I), pilot study in patients; type: in vivo, human
Protocol: A pilot study (I) with metformin was performed in six individuals from branch A, with a low peroral dose of 500 mg twice daily. The trial lasted 10 weeks, and the patients registered number of stools (and texture) during week 1, 5 and 10. The first week was without treatment and the patients received 500 mg x 2 during weeks 2- 5. Weeks 6 - 10 were without treatment. […] Number of stools per week was reduced by 40% in two patients with high stool frequency (35-36 per week). Three patients reported that stools were firmer during treatment.

[2] = tested on: familial diarrhea syndrome patients; assay: Metformin treatment trial (II), pilot study with increasing metformin doses; type: in vivo, human; settings: four of five individuals
Protocol: The dose given in the first metformin treatment trial (Table 2) was modest, and another pilot study with increasing metformin doses was started, including five individuals with high stool frequencies (22-42 per week). Patients with a history of ileus or inflammatory bowel disease were not included. Stool frequency was recorded continously for eight weeks. At day 1 of each week, blood samples were drawn for control of s-glucose, hemoglobin and creatinine. Symptoms and potential side-effects were followed closely by a weekly telephone call from the gastroenterologist.
The patients were without medication in week 1, and then the dose of metformin was increased each week as shown by the horizontal bars, starting at the beginning of week 2 and stopping by the end of week 5. Patient identifiers are listed in bold red letters in the panels.

[3] = biological target: mutant guanylate cyclase C GC-C S840I (p.Ser840Ile), transiently expressed in HEK293T cells (human); assay: cell-based or functional assay
[4] = peroral 500 mg twice daily during weeks 2-5

Compound | Side effects [1, 4] | Week 5 Stool firmness [1, 4] | Week 5 Stools per week ([1]; peroral 500 mg twice daily during weeks 2-5, week 1 (baseline) and weeks 6-10 without treatment) | stools during treatment (patient-reported firmness) ([1]; three of six patients, 500 mg twice daily) | Number of stools per week was reduced by ([1]; two patients with high stool frequency (35-36 per week), 500 mg twice daily) | dose-response effect on number of stools ([2]; weeks 2-5) | reduction in weekly average stools/day ([2]; weeks 2-5) | maximal reduction of number of stools ([2]; weeks 2-5 (Fig. 4)) | EC50 of uroguanylin for cGMP production, relative to the WT receptor (fold lower than WT) [3]
CN(C)C(=N)NC(=N)N [metformin, 1,1-dimethylbiguanide] | Intermittent nausea and None (4×) and Increased bloating | Increased | 13 (2×) and 18 and 20 (2×) and 22 | firmer | 40% | clear dose-response effect; also recorded: significant dose-response effect | 30-40% | 30-40% | –
uroguanylin peptide (from UniProt Q16661 97-112) | – | – | – | – | – | – | – | – | 6
